Results reported in US11845752B2, “Substituted imidazo[1,5-a]pyrazines for the treatment of hepatitis B” (ALIGOS THERAPEUTICS, INC., priority 2020, dated 2023).
Like-named read-outs stand apart in the source and are kept apart here.

Tested on: HBV
Test: HBV-DNA antiviral assay using HepG2.117 cells (intracellular HBV DNA by qPCR)
Assay type: cell-based, HBV genotype D
Settings: HBV DNA inhibition, 3 days incubation, read-out: EC50
How it was run: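 Read-outs: cell-lysate HBV DNA copies by qPCR (interpolated from gBlock standard) and parallel cellular ATP luminescence for CC50, both normalised to 2% DMSO controls and fitted by non-linear regression. HepG2.117 Tet-off genotype D HBV cells, induced by doxycycline removal, exposed 3 days to 4-fold serial dilutions.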

[1] = Hepatitis B virus, HepG2.117, 72 h

SMILES | EC50 [nM] | EC50 [1] [nM]
CC1Cn2c(c(C(=O)NCc3ccccc3-c3cc(N)cnn3)n(-c3ccc(OC4CC4)cc3)c2=O)CN1C(=O)c1ccc(Br)c(Cl)c1 (single isomer, unassigned) [Compound 42b] | 50 to 500 | –
CC1Cn2c(c(C(=O)NCc3ccccc3-c3cc(N)cnn3)n(-c3ccc(OC4CC4)cc3)c2=O)CN1C(=O)c1ccc(Br)c(C(F)(F)F)c1 (single isomer, unassigned) [Compound 43a] | 500 to 5000 | –
CC1Cn2c(c(C(=O)NCc3ccccc3-c3cc(N)cnn3)n(-c3ccc(OC4CC4)cc3)c2=O)CN1C(=O)c1ccc(Br)c(C(F)(F)F)c1 (single isomer, unassigned) [Compound 43b] | 50 to 500 | –
CC1Cn2c(c(C(=O)NCc3ccccc3-c3c[nH]cn3)n(-c3ccc(OC4CC4)cc3)c2=O)CN1C(=O)c1ccc(Br)c(Cl)c1 (single isomer, unassigned) [Compound 44a] | – | 50 to 500
CC1Cn2c(c(C(=O)NCc3ccccc3-c3c[nH]cn3)n(-c3ccc(OC4CC4)cc3)c2=O)CN1C(=O)c1ccc(Br)c(Cl)c1 (single isomer, unassigned) [Compound 44b] | < 50 | –
Cc1nnc(-c2cccc(F)c2CNC(=O)c2c3n(c(=O)n2-c2ccc(OC4CC4)cc2)CC(C)N(C(=O)c2ccc(Br)c(Cl)c2)C3)o1 (single isomer, unassigned) [Compound 45a] | – | 50 to 500
Cc1nnc(-c2cccc(F)c2CNC(=O)c2c3n(c(=O)n2-c2ccc(OC4CC4)cc2)CC(C)N(C(=O)c2ccc(Br)c(Cl)c2)C3)o1 (single isomer, unassigned) [Compound 45b] | 50 to 500 | –
Cc1nc2cc(-n3c(C(=O)NCc4ccccc4-c4ccncn4)c4n(c3=O)CC(C)N(C(=O)c3ccc(Br)c(Cl)c3)C4)ccc2o1 (single isomer, unassigned) [Compound 46a] | – | 50 to 500
Cc1nc2cc(-n3c(C(=O)NCc4ccccc4-c4ccncn4)c4n(c3=O)CC(C)N(C(=O)c3ccc(Br)c(Cl)c3)C4)ccc2o1 (single isomer, unassigned) [Compound 46b] | < 50 | –
Cc1nnc(-c2ccccc2CNC(=O)c2c3n(c(=O)n2-c2ccc(OC4CC4)cc2)CC(C)N(C(=O)c2ccc(Br)c(C(F)(F)F)c2)C3)o1 (single isomer, unassigned) [Compound 47a] | – | < 50
Cc1nc2cc(-n3c(C(=O)NCc4ccccc4-c4ccncn4)c4n(c3=O)CC(C)N(C(=O)c3ccc(Br)c(C(F)(F)F)c3)C4)ccc2o1 (single isomer, unassigned) [Compound 48a] | – | 50 to 500
Cc1nc2cc(-n3c(C(=O)NCc4ccccc4-c4ccncn4)c4n(c3=O)CC(C)N(C(=O)c3ccc(Br)c(C(F)(F)F)c3)C4)ccc2o1 (single isomer, unassigned) [Compound 48b] | < 50 | –
CC1Cn2c(c(C(=O)NCc3c(F)cccc3-c3cccnn3)n(-c3ccc(OC4CC4)cc3)c2=O)CN1C(=O)c1ccc(Br)c(Cl)c1 (single isomer, unassigned) [Compound 49a] | – | 50 to 500
CC1Cn2c(c(C(=O)NCc3c(F)cccc3-c3cccnn3)n(-c3ccc(OC4CC4)cc3)c2=O)CN1C(=O)c1ccc(Br)c(Cl)c1 (single isomer, unassigned) [Compound 49b] | 50 to 500 | –
CC1Cn2c(c(C(=O)NCc3c(F)cccc3-c3cccnn3)n(-c3ccc(OC4CC4)cc3)c2=O)CN1C(=O)c1ccc(Br)c(C(F)(F)F)c1 (single isomer, unassigned) [Compound 50a] | – | 50 to 500
CC1Cn2c(c(C(=O)NCc3c(F)cccc3-c3cccnn3)n(-c3ccc(OC4CC4)cc3)c2=O)CN1C(=O)c1ccc(Br)c(C(F)(F)F)c1 (single isomer, unassigned) [Compound 50b] | < 50 | –
CC1Cn2c(c(C(=O)NCc3ccccc3-c3cc[nH]n3)n(-c3ccc(OC4CC4)cc3)c2=O)CN1C(=O)c1ccc(Br)c(Cl)c1 (single isomer, unassigned) [Compound 51a] | – | 50 to 500
CC1Cn2c(c(C(=O)NCc3ccccc3-c3cc[nH]n3)n(-c3ccc(OC4CC4)cc3)c2=O)CN1C(=O)c1ccc(Br)c(Cl)c1 (single isomer, unassigned) [Compound 51b] | < 50 | –
Cc1nnc(-c2ccccc2CNC(=O)c2c3n(c(=O)n2-c2ccc4oc(C)nc4c2)CC(C)N(C(=O)c2ccc(Br)c(Cl)c2)C3)o1 (single isomer, unassigned) [Compound 53a] | – | 50 to 500
Cc1nnc(-c2ccccc2CNC(=O)c2c3n(c(=O)n2-c2ccc4oc(C)nc4c2)CC(C)N(C(=O)c2ccc(Br)c(Cl)c2)C3)o1 (single isomer, unassigned) [Compound 53b] | 50 to 500 | –

SMILES | EC50 [nM] | EC50 [1] [nM]
Cc1nnc(-c2ccccc2CNC(=O)c2c3n(c(=O)n2-c2ccc4oc(C)nc4c2)CC(C)N(C(=O)c2ccc(Br)c(C(F)(F)F)c2)C3)o1 (single isomer, unassigned) [Compound 54a] | – | < 50
Cc1nnc(-c2ccccc2CNC(=O)c2c3n(c(=O)n2-c2ccc4oc(C)nc4c2)CC(C)N(C(=O)c2ccc(Br)c(C(F)(F)F)c2)C3)o1 (single isomer, unassigned) [Compound 54b] | 50 to 500 | –
CC1Cn2c(c(C(=O)NCc3ccccc3-c3cccnn3)n(-c3ccc(OC[C@@H](C)O)cc3)c2=O)CN1C(=O)c1ccc(Br)c(C(F)(F)F)c1 (single isomer, unassigned) [Compound 56a] | 500 to 5000 | –
CC1Cn2c(c(C(=O)NCc3ccccc3-c3cccnn3)n(-c3ccc(OC[C@@H](C)O)cc3)c2=O)CN1C(=O)c1ccc(Br)c(C(F)(F)F)c1 (single isomer, unassigned) [Compound 56b] | 50 to 500 | –
CC1Cn2c(c(C(=O)NCc3ccccc3-c3cccnn3)n(-c3ccc(OC[C@H](C)O)cc3)c2=O)CN1C(=O)c1ccc(Br)c(C(F)(F)F)c1 (single isomer, unassigned) [Compound 57a] | – | 50 to 500
CC1Cn2c(c(C(=O)NCc3ccccc3-c3ncccn3)n(-c3ccc(OC4CC4)cc3)c2=O)CN1C(=O)c1ccc(Br)c(C(F)(F)F)c1 (single isomer, unassigned) [Compound 59a] | – | < 50
CC1Cn2c(c(C(=O)NCc3ccccc3-c3ncccn3)n(-c3ccc(OC4CC4)cc3)c2=O)CN1C(=O)c1ccc(Br)c(C(F)(F)F)c1 (single isomer, unassigned) [Compound 59b] | < 50 | –
CC1Cn2c(c(C(=O)NCc3ccccc3-c3ccccn3)n(-c3ccc(OC[C@@H](C)O)cc3)c2=O)CN1C(=O)c1ccc(Br)c(C(F)(F)F)c1 (single isomer, unassigned) [Compound 60a] | – | 50 to 500
CC1Cn2c(c(C(=O)NCc3ccccc3-c3ccncn3)n(-c3ccc(OC[C@@H](O)C(F)(F)F)cc3)c2=O)CN1C(=O)c1ccc(Br)c(C(F)(F)F)c1 (single isomer, unassigned) [Compound 62a] | – | < 50
CC1Cn2c(c(C(=O)NCc3ccccc3-c3ncccn3)n(-c3ccc(OC[C@@H](C)O)cc3)c2=O)CN1C(=O)c1ccc(Br)c(C(F)(F)F)c1 (single isomer, unassigned) [Compound 64a] | – | < 50
CC1Cn2c(c(C(=O)NCc3ccccc3-c3ncccn3)n(-c3ccc(OC[C@H](C)O)cc3)c2=O)CN1C(=O)c1ccc(Br)c(C(F)(F)F)c1 (single isomer, unassigned) [Compound 65a] | – | < 50
CC1Cn2c(c(C(=O)NCc3ccccc3-c3ccccn3)n(-c3ccc(OC[C@@H](O)C(F)(F)F)cc3)c2=O)CN1C(=O)c1ccc(Br)c(C(F)(F)F)c1 (single isomer, unassigned) [Compound 68a] | – | < 50
CC1Cn2c(c(C(=O)NCc3ccccc3-c3ccccn3)n(-c3ccc(OC[C@H](O)C(F)(F)F)cc3)c2=O)CN1C(=O)c1ccc(Br)c(C(F)(F)F)c1 (single isomer, unassigned) [Compound 69a] | – | < 50
CCC(=O)COc1ccc(-n2c(C(=O)NCc3ccccc3-c3ncccn3)c3n(c2=O)CC(C)N(C(=O)c2ccc(Br)c(C(F)(F)F)c2)C3)cc1 (single isomer, unassigned) [Compound 70a] | – | 50 to 500
CCC(=O)COc1ccc(-n2c(C(=O)NCc3ccccc3-c3ncccn3)c3n(c2=O)CC(C)N(C(=O)c2ccc(Br)c(C(F)(F)F)c2)C3)cc1 (single isomer, unassigned) [Compound 70b] | < 50 | –
CC1Cn2c(c(C(=O)NCc3ccccc3-c3ccncn3)n(-c3ccc(N4CC5(CN(C)C5)C4)cc3)c2=O)CN1C(=O)c1ccc(Br)c(C(F)(F)F)c1 (single isomer, unassigned) [Compound 73a, (6R*)-7-[4-bromo-3-(trifluoromethyl)benzoyl]-6-methyl-2-(4-{6-methyl-2,6-diazaspiro[3.3]heptan-2-yl}phenyl)-3-oxo-N-{[2-(pyrimidin-4-yl)phenyl]methyl}-5H,6H,8H-imidazo[1,5-a]pyrazine-1-carboxamide] | 500 to 5000 | –
CC1Cn2c(c(C(=O)NCc3ccccc3-c3ccncn3)n(-c3ccc(N4CC5(CN(C)C5)C4)cc3)c2=O)CN1C(=O)c1ccc(Br)c(C(F)(F)F)c1 (single isomer, unassigned) [Compound 73b, (6S*)-7-[4-bromo-3-(trifluoromethyl)benzoyl]-6-methyl-2-(4-{6-methyl-2,6-diazaspiro[3.3]heptan-2-yl}phenyl)-3-oxo-N-{[2-(pyrimidin-4-yl)phenyl]methyl}-5H,6H,8H-imidazo[1,5-a]pyrazine-1-carboxamide] | 50 to 500 | –
CC1Cn2c(c(C(=O)NCc3ccccc3-c3ccncn3)n(-c3ccc(OCC4(O)CC4)cc3)c2=O)CN1C(=O)c1ccc(Br)c(C(F)(F)F)c1 (single isomer, unassigned) [Compound 74b] | – | < 50
CC1Cn2c(c(C(=O)NCc3ccccc3-c3cccnn3)n(-c3ccc(N4CC5(CN(C)C5)C4)cc3)c2=O)CN1C(=O)c1ccc(Br)c(C(F)(F)F)c1 (single isomer, unassigned) [Compound 76a] | – | 500 to 5000
CC1Cn2c(c(C(=O)NCc3ccccc3-c3cccnn3)n(-c3ccc(N4CC5(CN(C)C5)C4)cc3)c2=O)CN1C(=O)c1ccc(Br)c(C(F)(F)F)c1 (single isomer, unassigned) [Compound 76b] | 500 to 5000 | –
